# Source: PMC3241856 (ACS chemical biology, 2011)
# Biological target: mu opioid receptor (MOR) (Rattus norvegicus, UniProt P33535)
# Test: Stimulation of [35S]GTPγS binding, C6-MOR membranes
# Type: biochemical
# Conditions: 10 μM peptide compared to 10 μM DAMGO
# mu opioid receptor (MOR), sequence (P33535 whole entry): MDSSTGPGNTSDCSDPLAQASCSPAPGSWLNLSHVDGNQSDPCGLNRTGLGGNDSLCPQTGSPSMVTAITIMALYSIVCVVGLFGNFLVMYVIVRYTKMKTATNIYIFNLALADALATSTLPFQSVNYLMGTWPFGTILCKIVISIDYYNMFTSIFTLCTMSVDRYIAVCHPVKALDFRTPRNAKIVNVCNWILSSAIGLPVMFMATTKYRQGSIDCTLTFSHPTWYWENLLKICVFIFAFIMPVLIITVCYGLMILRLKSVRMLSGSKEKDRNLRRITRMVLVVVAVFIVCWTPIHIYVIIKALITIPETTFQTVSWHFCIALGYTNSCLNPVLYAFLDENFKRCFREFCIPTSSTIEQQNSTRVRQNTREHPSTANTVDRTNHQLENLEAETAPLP
structure (smiles),measurement,value
NC(=O)[C@H](Cc1ccccc1)NC(=O)[C@H](Cc1ccccc1)NC(=O)[C@@H]1CCCN1C(=O)[C@@H](N)Cc1ccc(O)cc1 [endomorphin-2],MOR % max. stimulation of [35S]GTPγS binding,49 ± 7%
